Assays:
[1] = molecular target: T1, follicle-stimulating hormone (FSH) receptor (Rattus norvegicus, UniProt P20395); experiment: Rat granulosa EC50 FSH (Assay B); assay type: cell-based
T1 construct: endogenous in cells; host or cells: rat granulosa cells
T1 sequence (P20395 18-692): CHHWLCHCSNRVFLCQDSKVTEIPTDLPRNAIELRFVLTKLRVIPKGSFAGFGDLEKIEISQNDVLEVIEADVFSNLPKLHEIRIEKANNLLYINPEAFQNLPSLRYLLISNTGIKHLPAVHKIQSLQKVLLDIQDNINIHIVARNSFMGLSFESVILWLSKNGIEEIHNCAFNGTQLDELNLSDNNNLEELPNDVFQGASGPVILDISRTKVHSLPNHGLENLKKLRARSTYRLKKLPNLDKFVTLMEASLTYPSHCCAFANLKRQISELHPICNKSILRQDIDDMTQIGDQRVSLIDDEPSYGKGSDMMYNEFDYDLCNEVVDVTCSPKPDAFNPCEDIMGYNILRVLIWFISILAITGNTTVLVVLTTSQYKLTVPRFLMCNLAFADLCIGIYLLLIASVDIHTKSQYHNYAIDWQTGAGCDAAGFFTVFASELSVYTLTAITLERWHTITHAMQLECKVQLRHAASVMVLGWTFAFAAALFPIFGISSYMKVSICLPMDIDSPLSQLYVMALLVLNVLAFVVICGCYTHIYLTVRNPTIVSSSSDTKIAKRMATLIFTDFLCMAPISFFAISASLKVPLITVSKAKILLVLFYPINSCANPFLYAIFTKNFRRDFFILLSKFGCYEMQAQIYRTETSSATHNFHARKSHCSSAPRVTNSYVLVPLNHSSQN
Protocol: Example 25. Rat granulosa EC50 FSH (Assay B)
The assay was performed pursuant to the teaching of Yanofsky et al. (2006) Allosteric activation of the follicle-stimulating hormone (FSH) receptor by selective, nonpeptide agonists (JBC 281(19): 13226-13233, which is incorporated by reference in the disclosure of the invention).

FSHR = molecular target: T2, FSHR (Homo sapiens, UniProt P23945); experiment: EC50 of cyclic AMP production in CHO FSHR cells + EC20 FSH (Assay A); assay type: cell-based; conditions: cyclic AMP production in CHO FSHR cells + EC20 FSH (0.265 pM), HTRF
T2 construct: expressed in transfected cells; host or cells: CHO (Cho-FSHR-LUC-1-1-43)
T2 sequence (P23945 18-695): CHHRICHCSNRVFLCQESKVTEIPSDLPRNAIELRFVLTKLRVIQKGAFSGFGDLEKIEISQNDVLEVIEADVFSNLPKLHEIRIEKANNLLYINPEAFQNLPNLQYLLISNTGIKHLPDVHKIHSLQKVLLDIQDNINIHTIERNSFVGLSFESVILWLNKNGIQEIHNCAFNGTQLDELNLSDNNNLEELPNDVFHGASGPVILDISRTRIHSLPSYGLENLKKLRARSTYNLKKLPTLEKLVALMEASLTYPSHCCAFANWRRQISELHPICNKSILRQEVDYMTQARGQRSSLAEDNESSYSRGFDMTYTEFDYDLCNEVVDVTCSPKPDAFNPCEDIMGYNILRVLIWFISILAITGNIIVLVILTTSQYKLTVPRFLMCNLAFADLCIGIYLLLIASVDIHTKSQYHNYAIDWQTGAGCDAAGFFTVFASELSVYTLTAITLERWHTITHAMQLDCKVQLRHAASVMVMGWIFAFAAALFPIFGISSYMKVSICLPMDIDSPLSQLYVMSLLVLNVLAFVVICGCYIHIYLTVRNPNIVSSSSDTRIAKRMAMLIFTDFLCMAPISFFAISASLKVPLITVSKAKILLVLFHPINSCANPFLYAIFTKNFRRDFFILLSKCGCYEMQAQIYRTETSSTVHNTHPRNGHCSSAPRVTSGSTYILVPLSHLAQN
In short: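 CHO cells expressing FSHR, stimulated 1 h at 37° C with compound plus EC20 FSH (0.265 pM final) and 200 μM IBMX. cAMP measured by HTRF (665/620 nm ratio) after 1 h at room temperature; effect expressed relative to maximum response of FSH standard.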

Structure (SMILES)	EC50 [1] [nM]	EC50 (FSHR) [nM]
COc1cc2c(cc1-c1c(C)nn(CC(N)=O)c1C)-c1c(c(C(=O)N(C)C(C)(C)C)nn1-c1cc(Cl)cc(Cl)c1)CO2 [Compound 139, 8-(1-(2-amino-2-oxoethyl)-3,5-dimethyl-1H-pyrazol-4-yl)-N-tert-butyl-1-(3,5-dichlorophenyl)-7-methoxy-N-methyl-1,4-dihydrochromeno[4,3-c]pyrazole-3-carboxamide]	10 to 100	< 10
CNC(=O)c1cncc(-c2cc3c(cc2OC)OCc2c(C(=O)N4CCOCC4(C)C)nn(-c4cc(Cl)cc(Cl)c4)c2-3)c1 [Compound 94, 5-(1-(3,5-dichlorophenyl)-3-(3,3-dimethylmorpholine-4-carbonyl)-7-methoxy-1,4-dihydrochromeno[4,3-c]pyrazol-8-yl)-N-methylnicotinamide]	< 10	< 10
COc1cc2c(cc1-c1cn(CC(N)=O)nc1C)-c1c(c(C(=O)N(C)C(C)(C)C)nn1-c1cc(Cl)cc(Cl)c1)CO2 [Compound 142]	10 to 100	< 10
COc1cc2c(cc1-c1ccccn1)-c1c(c(C(=O)N3CCC(O)CC3(C)C)nn1-c1cc(Cl)cc(Cl)c1)CO2 (stereo not shown) [Compound 10, (1-(3,5-dichlorophenyl)-7-methoxy-8-(pyridin-2-yl)-1,4-dihydrochromeno[4,3-c]pyrazol-3-yl)(4-hydroxy-2,2-dimethylpiperidin-1-yl)methanone]	10 to 100	< 10
COc1cc(F)cc(-n2nc(C(=O)N(C)C(C)(C)C)c3c2-c2cc(-c4cncc(C(N)=O)c4)c(OC)cc2OC3)c1 [Compound 166]	101 to 500	< 10
COc1cc2c(cc1-c1nn(C)cc1C#N)-c1c(c(C(=O)N3CCOCC3(C)C)nn1-c1cc(F)cc(F)c1)CO2 [Compound 150]	10 to 100	< 10
COc1cc2c(cc1-c1cccc(CO)c1F)-c1c(c(C(=O)N(C)C(C)(C)C)nn1-c1cc(Cl)cc(Cl)c1)CO2 [Compound 195, N-tert-butyl-1-(3,5-dichlorophenyl)-8-(2-fluoro-3-(hydroxymethyl)phenyl)-7-methoxy-N-methyl-1,4-dihydrochromeno[4,3-c]pyrazole-3-carboxamide]	10 to 100	10 to 100
COc1cc2c(cc1-c1cnn(CCO)c1)-c1c(c(C(=O)N3CCOCC3(C)C)nn1-c1cc(F)cc(Cl)c1)CO2 [Compound 78, (1-(3-chloro-5-fluorophenyl)-8-(1-(2-hydroxyethyl)-1H-pyrazol-4-yl)-7-methoxy-1,4-dihydrochromeno[4,3-c]pyrazol-3-yl)(3,3-dimethylmorpholino)methanone]	10 to 100	< 10
COCC1(CC(C)C)CCCN1C(=O)c1nn(-c2ccsc2)c2c1COc1cc(OC)c(-c3ccn(C)n3)cc1-2 (stereo not shown) [Compound 127, (2-isobutyl-2-(methoxymethyl)pyrrolidin-1-yl)(7-methoxy-8-(1-methyl-1H-pyrazol-3-yl)-1-(thiophen-3-yl)-1,4-dihydrochromeno[4,3-c]pyrazole-3-yl)methanone]	101 to 500	10 to 100
COc1cc2c(cc1-c1cc(C(N)=O)c[n+]([O-])c1)-c1c(c(C(=O)N3CCOCC3(C)C)nn1-c1cc(Cl)cc(Cl)c1)CO2 [Compound 174, 3-carbamoyl-5-(1-(3,5-dichlorophenyl)-3-(3,3-dimethylmorpholine-4-carbonyl)-7-methoxy-1,4-dihydrochromeno[4,3-c]pyrazol-8-yl)pyridine 1-oxide]	10 to 100	< 10
COc1cc2c(cc1-c1cncc(C(N)=O)c1)-c1c(c(C(=O)N3CC[S+]([O-])CC3(C)C)nn1-c1cc(F)cc(F)c1)CO2 (stereo not shown) [Compound 163]	101 to 500	< 10
COc1cc2c(cc1-c1cc(C(N)=O)ccc1F)-c1c(c(C(=O)N(C)C(C)(C)C)nn1-c1cc(Cl)cc(Cl)c1)CO2 [Compound 93, N-tert-butyl-8-(5-carbamoyl-2-fluorophenyl)-1-(3,5-dichlorophenyl)-7-methoxy-N-methyl-1,4-dihydrochromeno[4,3-c]pyrazole-3-carboxamide]	10 to 100	< 10
COc1cc2c(cc1C1CC1C(N)=O)-c1c(c(C(=O)N(C)C(C)(C)C)nn1-c1cc(Cl)cc(Cl)c1)CO2 (stereo not shown) [Compound 199]	101 to 500	< 10
COc1cc2c(cc1-c1cc(C(N)=O)c[n+]([O-])c1)-c1c(c(C(=O)N3CCOCC3(C)C)nn1-c1cc(F)cc(F)c1)CO2 [Compound 176]	10 to 100	< 10
COc1cc2c(cc1-c1cncc(C(N)=O)c1)-c1c(c(C(=O)N3CCC(O)CC3(C)C)nn1-c1cc(F)cc(F)c1)CO2 (stereo not shown) [Compound 162]	101 to 500	< 10
COc1cc(OC)cc(-n2nc(C(=O)N3CCOCC3(C)C)c3c2-c2cc(-c4cncc(C)c4)c(OC)cc2OC3)c1 [Compound 43, (1-(3,5-dimethoxyphenyl)-7-methoxy-8-(5-methylpyridin-3-yl)-1,4-dihydrochromeno[4,3-c]pyrazol-3-yl)(3,3-dimethylmorpholino)methanone]	10 to 100	< 10
COc1cc2c(cc1-c1cc(C(N)=O)ccn1)-c1c(c(C(=O)N(C)C(C)(C)C#N)nn1-c1cc(Cl)cc(Cl)c1)CO2 [Compound 120, 8-(4-carbamoylpyridin-2-yl)-N-(2-cyanopropan-2-yl)-1-(3,5-dichlorophenyl)-7-methoxy-N-methyl-1,4-dihydrochromeno[4,3-c]pyrazole-3-carboxamide]	10 to 100	< 10
COc1cc(OC)cc(-n2nc(C(=O)N(C)C(C)(C)C)c3c2-c2cc(-c4cncc(C(N)=O)c4)c(OC)cc2OC3)c1 [Compound 160]	10 to 100	< 10
COc1cc2c(cc1-c1cc(F)cc(CO)c1)-c1c(c(C(=O)N(C)C(C)(C)C)nn1-c1cc(Cl)cc(Cl)c1)CO2 [Compound 80, N-tert-butyl-1-(3,5-dichlorophenyl)-8-(3-fluoro-5-(hydroxymethyl)phenyl)-7-methoxy-N-methyl-1,4-dihydrochromeno[4,3-c]pyrazole-3-carboxamide]	101 to 500	< 10
COc1cc(F)cc(-n2nc(C(=O)N3CCOCC3(C)C)c3c2-c2cc(-c4cnn(CCO)c4)c(OC)cc2OC3)c1 [Compound 74, (3,3-dimethylmorpholino)(1-(3-fluoro-5-methoxyphenyl)-8-(1-(2-hydroxyethyl)-1H-pyrazol-4-yl)-7-methoxy-1,4-dihydrochromeno[4,3-c]pyrazol-3-yl)methanone]	10 to 100	< 10
COc1cc2c(cc1-c1cnn(CCO)c1)-c1c(c(C(=O)N(C)C(C)(C)C)nn1-c1ccsc1)CO2 [Compound 76, N-tert-butyl-8-(1-(2-hydroxyethyl)-1H-pyrazol-4-yl)-7-methoxy-N-methyl-1-(thiophen-3-yl)-1,4-dihydrochromeno[4,3-c]pyrazole-3-carboxamide]	> 500	10 to 100
COc1cc2c(cc1-c1cccc(C(N)=O)c1)-c1c(c(C(=O)N(C)C(C)(C)C)nn1-c1cc(Cl)cc(Cl)c1)CO2 [Compound 172]	10 to 100	< 10
COc1cc2c(cc1-c1cccnc1Cl)-c1c(c(C(=O)N(C)C(C)(C)C)nn1-c1ccsc1)CO2 [Compound 60, N-tert-butyl-8-(2-chloropyridin-3-yl)-7-methoxy-N-methyl-1-(thiophen-3-yl)-1,4-dihydrochromeno[4,3-c]pyrazole-3-carboxamide]	101 to 500	< 10

Source: US10941152B2, “Pyrazole compounds as modulators of FSHR and uses thereof” (TOCOPHERX, INC., priority 2014, dated 2021)
